The source made the active and inactive calls. The calls are words filed in the database; no cut-off is given here. Non-standard residues stand in square brackets, D forms with d. Residues, ends and D or L forms follow the SMILES beside them. Ahx = NCCCCCC(=O)O
Legend:
[1] = tested on: Human immunodeficiency virus type 1 integrase (Human immunodeficiency virus 1), Q7ZJM1 [F185K,C280S]; assay: Inhibition of HIV1 integrase F185K/C280S double mutant dimerization expressed in Escherichia coli BL21 (DE3) at 100 fold excess compound concentration after 1 hr by PAGE analysis
[2] = tested on: Human immunodeficiency virus type 1 integrase (Human immunodeficiency virus 1), Q7ZJM1 [F185K,C280S]; assay: Inhibition of HIV1 integrase F185K/C280S double mutant dimerization expressed in Escherichia coli BL21 (DE3) at 110 uM after 1 hr by PAGE analysis
[3] = biological target: Human immunodeficiency virus type 1 integrase (Human immunodeficiency virus 1, UniProt Q7ZJM1, C280S/F185K); assay: Inhibition of HIV1 3'-processing activity of integrase F185K/C280S double mutant expressed in Escherichia coli BL21 (DE3)

CC[C@H](C)[C@H](NC(=O)[C@H](CC(=O)O)NC(=O)[C@@H](NC(=O)[C@H](C)NC(=O)[C@@H](NC(=O)[C@@H](NC(=O)[C@H](CC(=O)O)NC(=O)[C@@H](NC(=O)[C@@H](NC(=O)[C@H](CCCNC(=N)N)NC(=O)[C@H](CCC(=O)O)NC(=O)CNC(=O)[C@H](C)NC(=O)CCCCCNC(=O)[C@H](CCCNC(=N)N)NC(=O)[C@H](CCCCN)NC(=O)[C@H](Cc1ccccc1)NC(=O)[C@H](CC(N)=O)NC(=O)[C@H](Cc1cnc[nH]1)NC(=O)[C@@H](NC(=O)[C@H](Cc1ccccc1)NC(=O)[C@@H](NC(=O)[C@H](C)NC(=O)[C@H](CCSC)NC(=O)[C@H](CCC(N)=O)NC(=O)[C@@H](NC(=O)[C@H](C)NC(=O)[C@@H](NC(=O)[C@H](CCCCN)NC(=O)[C@H](CC(C)C)NC(=O)[C@@H](N)Cc1cnc[nH]1)[C@@H](C)O)C(C)C)C(C)C)[C@@H](C)CC)[C@@H](C)CC)C(C)C)[C@@H](C)CC)[C@@H](C)CC)[C@@H](C)O)C(=O)N[C@@H](CCC(N)=O)C(N)=O (H-HLKTAVQMAVFIHNFKR[Ahx]AGERIVDIIATDIQ-NH2)
inhibition [1]: inactive
inhibition [2]: inactive
IC50 [3]: 1500 nM
